Test results published in patent US11173162B2, “Bicyclic heterocycles as FGFR4 inhibitors” (Incyte Corporation, priority 2015, dated 2021).

What follows are compounds tested on FGFR3 enzyme (assay: FGFR Enzymatic Assay (FRET peptide phosphorylation), FGFR3). Conditions: IC50 ratio showing FGFR3 selectivity; Table 2A, pre-incubated for 4 hours.
Format: biochemical
Description: The inhibitor potency of the exemplified compounds was measured in an enzyme assay that measures peptide phosphorylation using FRET measurements to detect product formation. Inhibitors were serially diluted in DMSO and a volume of 0.5 μL was transferred to the wells of a 384-well plate.
GraphPad prism3 was used to analyze the data.

Row | FGFR1/FGFR3 | FGFR4/FGFR3 | SMILES
1 | >5 | >10 | COc1cc(OC)c(F)c(N2Cc3cnc(-c4cn(C)nc4C)cc3N(Cc3cnn(C)c3)C2=O)c1F [Example 72, 3-(2,6-difluoro-3,5-dimethoxyphenyl)-7-(1,3-dimethyl-1H-pyrazol-4-yl)-1-((1-methyl-1H-pyrazol-4-yl)methyl)-3,4-dihydropyrido[4,3-d]pyrimidin-2(1H)-one]
2 | >5 | >10 | COc1cc(OC)c(F)c(N2Cc3cnc(-c4cn(C)nc4C)cc3N(Cc3ccc(F)c(F)c3)C2=O)c1F [Example 73, 3-(2,6-difluoro-3,5-dimethoxyphenyl)-1-(3,4-difluorobenzyl)-7-(1,3-dimethyl-1H-pyrazol-4-yl)-3,4-dihydropyrido[4,3-d]pyrimidin-2(1H)-one]
3 | >5 | >5 | COc1cc(OC)c(F)c(N2Cc3cnc(-c4cn(C)nc4C)cc3N(Cc3ccc(C#N)nc3)C2=O)c1F [Example 74, 5-((3-(2,6-difluoro-3,5-dimethoxyphenyl)-7-(1,3-dimethyl-1H-pyrazol-4-yl)-2-oxo-3,4-dihydropyrido[4,3-d]pyrimidin-1(2H)-yl)methyl)picolinonitrile]
4 | >5 | >3 | COc1cc(OC)c(F)c(N2Cc3cnc(-c4cn(C)nc4C)cc3N(c3ccc4nc(C)oc4c3)C2=O)c1F [Example 75, 3-(2,6-difluoro-3,5-dimethoxyphenyl)-7-(1,3-dimethyl-1H-pyrazol-4-yl)-1-(2-methylbenzo[d]oxazol-6-yl)-3,4-dihydropyrido[4,3-d]pyrimidin-2(1H)-one]
5 | >5 | >10 | COc1cc(OC)c(F)c(N2Cc3cnc(-c4cn(C)nc4C)cc3N(c3ccc(-n4cccn4)cc3)C2=O)c1F [Example 77, 1-(4-(1H-pyrazol-1-yl)phenyl)-3-(2,6-difluoro-3,5-dimethoxyphenyl)-7-(1,3-dimethyl-1H-pyrazol-4-yl)-3,4-dihydropyrido[4,3-d]pyrimidin-2(1H)-one]
6 | >5 | >3 | COc1cc(OC)c(F)c(N2Cc3cnc(-c4cn(C)nc4C)cc3N(c3cc(F)cc(C#N)c3)C2=O)c1F [Example 78, 3-(3-(2,6-difluoro-3,5-dimethoxyphenyl)-7-(1,3-dimethyl-1H-pyrazol-4-yl)-2-oxo-3,4-dihydropyrido[4,3-d]pyrimidin-1(2H)-yl)-5-fluorobenzonitrile]
7 | >5 | >3 | COc1cc(OC)c(F)c(N2Cc3cnc(-c4cn(C)nc4C)cc3N(c3ccc(C#N)cn3)C2=O)c1F [Example 79, 6-(3-(2,6-difluoro-3,5-dimethoxyphenyl)-7-(1,3-dimethyl-1H-pyrazol-4-yl)-2-oxo-3,4-dihydropyrido[4,3-d]pyrimidin-1(2H)-yl)nicotinonitrile]
8 | >5 | >10 | COc1cc(N2C(=O)N(c3c(F)c(OC)cc(OC)c3F)Cc3cnc(-c4cn(C)nc4C)cc32)ccc1C#N [Example 81, 4-(3-(2,6-difluoro-3,5-dimethoxyphenyl)-7-(1,3-dimethyl-1H-pyrazol-4-yl)-2-oxo-3,4-dihydropyrido[4,3-d]pyrimidin-1(2H)-yl)-2-methoxybenzonitrile]
9 | >5 | >5 | COc1cc(OC)c(F)c(N2Cc3cnc(-c4cn(C)nc4C)cc3N(C3CC3)C2=O)c1F [Example 83, 1-cyclopropyl-3-(2,6-difluoro-3,5-dimethoxyphenyl)-7-(1,3-dimethyl-1H-pyrazol-4-yl)-3,4-dihydropyrido[4,3-d]pyrimidin-2(1H)-one]

Row | SMILES | FGFR1/FGFR3 | FGFR4/FGFR3
10 | COc1cc(OC)c(F)c(N2Cc3cnc(-c4cn(C)nc4C)cc3N(C3CCN(S(C)(=O)=O)CC3)C2=O)c1F [Example 71, 3-(2,6-difluoro-3,5-dimethoxyphenyl)-7-(1,3-dimethyl-1H-pyrazol-4-yl)-1-(1-(methylsulfonyl)piperidin-4-yl)-3,4-dihydropyrido[4,3-d]pyrimidin-2(1H)-one] | >5 | >3
